According to BindingDB's records for PubMed 32739648 (n/a, 2020):

Target: Epidermal growth factor receptor (Homo sapiens, UniProt P00533)
Experiment: Inhibition of human EGFR incubated for 1 hrs in presence of ATP by ELISA assay

Epidermal growth factor receptor, sequence (P00533 whole entry): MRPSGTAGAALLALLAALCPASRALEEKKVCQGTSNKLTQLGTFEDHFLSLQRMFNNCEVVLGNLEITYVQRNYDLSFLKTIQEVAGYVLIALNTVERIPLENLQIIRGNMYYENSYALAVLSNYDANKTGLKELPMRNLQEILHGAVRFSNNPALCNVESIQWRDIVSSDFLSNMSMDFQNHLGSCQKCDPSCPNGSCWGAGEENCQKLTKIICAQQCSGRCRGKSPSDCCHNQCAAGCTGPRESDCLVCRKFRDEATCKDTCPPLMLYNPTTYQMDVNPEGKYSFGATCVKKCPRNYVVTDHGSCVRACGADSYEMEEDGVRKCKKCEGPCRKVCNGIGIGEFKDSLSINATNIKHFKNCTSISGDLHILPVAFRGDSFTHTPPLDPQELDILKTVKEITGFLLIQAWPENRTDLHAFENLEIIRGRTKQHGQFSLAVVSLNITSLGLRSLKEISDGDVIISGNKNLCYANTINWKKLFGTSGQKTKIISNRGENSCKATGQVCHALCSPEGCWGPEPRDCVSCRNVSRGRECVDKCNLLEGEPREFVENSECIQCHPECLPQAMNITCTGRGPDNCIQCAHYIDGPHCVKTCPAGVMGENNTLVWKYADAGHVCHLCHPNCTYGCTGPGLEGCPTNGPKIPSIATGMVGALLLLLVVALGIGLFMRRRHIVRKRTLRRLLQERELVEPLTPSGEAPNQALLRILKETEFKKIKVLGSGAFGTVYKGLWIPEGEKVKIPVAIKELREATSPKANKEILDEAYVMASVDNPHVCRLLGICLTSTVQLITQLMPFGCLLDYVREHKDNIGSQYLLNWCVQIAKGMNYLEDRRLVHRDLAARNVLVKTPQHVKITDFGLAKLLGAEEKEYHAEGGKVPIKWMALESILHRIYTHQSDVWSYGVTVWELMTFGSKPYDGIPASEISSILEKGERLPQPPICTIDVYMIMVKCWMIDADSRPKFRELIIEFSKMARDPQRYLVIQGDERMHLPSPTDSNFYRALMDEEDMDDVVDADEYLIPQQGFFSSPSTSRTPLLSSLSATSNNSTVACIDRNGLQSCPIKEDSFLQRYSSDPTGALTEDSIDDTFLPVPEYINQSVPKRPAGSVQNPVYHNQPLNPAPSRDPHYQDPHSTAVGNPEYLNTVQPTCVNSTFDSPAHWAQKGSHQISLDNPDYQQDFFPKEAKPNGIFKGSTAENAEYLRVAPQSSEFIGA

IC50: 22 nM
Compound: CSCC[C@@H](NC(=O)[C@@H](NC(=O)[C@@H](NC(=O)CC(=O)N(O)C/C=C(\C)CC/C=C(\C)CCC=C(C)C)C(C)C)C(C)C)C(=O)O
